Results: PMC2637266, “Quantification of gamma-secretase modulation differentiates inhibitor compound selectivity between two substrates Notch and amyloid precursor protein” (Molecular Brain, 2008)
Entries after “also recorded” stand apart in the source; their conditions may differ.

Legend:
[1] = biological target: T1, γ-secretase cleavage of Notch N100-Flag (Homo sapiens, UniProt P49768); assay: In vitro γ-secretase activity assay, NICD generated from N100-Flag, Western blot densitometry; format: biochemical; details: for NICD generation in vitro, dose response: N100-Flag, increasing concentrations
T1 construct: substrate made in E. coli
Experimental: To characterize the direct effect of two γ-secretase inhibitors cpd E and DAPT on APP/Notch cleavage, a conventional in vitro γ-secretase assay to quantify their inhibitory potency was used. The incubation of γ-secretase complex with purified substrates at 37°C for 4 hr was followed by Western Blot (WB) to determine the quantity of newly generated NICD. A newly generated band that corresponds to the predicted size of the NICD-Flag was detected (Fig. 1A and 1B).
Figure 1 Generation of NICD and Aβ from purified APP and Notch substrate C100 and N100 in an in vitro γ-secretase activity assay. The E. coli generated APP- and Notch-based, 100-residue γ-secretase substrates C100-Flag and N100-Flag were mixed with the membrane vesicles solubilized in CHAPSO after DMSO or compounds were added. The mixture was incubated at 37°C for 4 hours. A. A dose-dependent inhibition of NICD generation by DAPT. Generation of NICD was detected by Western blot (WB) with antibody 1744 specifically recognizing N-terminus of NICD. B. Generation of NICD was inhibited in the presence of 100 nM of cpd E. C. Levels of NICD determined by WB were quantified by densitometry (dotted line). Levels of Aβ generated from the γ-secretase cleavage of C100 in the presence of DAPT were determined by ELISA (solid line). […] D. NICD (dotted line) and Aβ (solid line) generation in the presence of cpd E were compared.
The E. coli generated APP- and Notch-based, 100-residue γ-secretase substrates C100-Flag and N100-Flag were purified as previously described. C100-Flag substrate contains an initiating methionine, the 99 C-terminal residues of APP that start at the […], and a Flag tag. N100-Flag substrate contains a similar initiating methionine, 99 amino acids that start at the TACE cleavage site, and a Flag tag. The membrane vesicles were solubilized in 1% CHAPSO-HEPES and diluted in a final concentration of 0.2% CHAPSO-HEPES. Phosphatidylethanolamine (PE) and phosphatidylcholine (PC) were added to the final concentration of 0.02% PE and 0.08% PC. After adding DMSO or test compounds to the solubilized γ-secretase complex, substrate C100-Flag or N100-Flag was added to the mixture, then followed by incubation at 37°C for 4 hours. Two compounds have been used in this study, compound E (cpd E), {(S,S)-2-[2-(3,5-Difluorophenyl)-acetylamino]-N-(1-methyl-2-oxo-5-phenyl-2,3-dihydro-1H-benzo [e] [1,4] diazepin-3-yl)-propionamide} [57] and DAPT {N-[N-(3,5-Difluorophenacetyl-L-alanyl)]-S-phenylglycine t-Butyl Ester} [79]. Cpd E was provided by Dr. Michael Wolfe.

[2] = tested on: brain cortical γ-secretase; set-up: method as in PMID 15857627; details: guinea pig; cited from earlier work
[3] = tested on: NICD generation; set-up: method as in PMID 15319485; details: found as low as; read-out: IC50 for NICD generation in cultured cells; cited from earlier work
[4] = biological target: γ-secretase; details: read-out: IC50 for de novo Aβ and AICD generation in vitro; cited from earlier work
[5] = tested on: γ-secretase, NICD generation; set-up: method as in PMID 16236717; details: 50 nM; cited from earlier work
[6] = tested on: γ-secretase, AICD generation; set-up: method as in PMID 16236717; details: 100 nM; cited from earlier work
[7] = tested on: zebrafish embryos; set-up: method as in PMID 12101103; details: treatment at late blastula stage; cited from earlier work
[8] = tested on: brain Aβ; set-up: method as in PMID 11145990; details: transgenic mouse, human familial AD linked V717F APP; cited from earlier work

Row | SMILES | NICD generation in vitro ([1]; 100 nM (0.1 μM), compared to DMSO controls) | NICD generation in vitro, dose response [1] | brain cortical γ-secretase activity [2] | plasma, CSF and brain Aβ levels [2] | IC50 [3] [nM] | IC50 [4] [nM] | inhibition of NICD generation in vitro [5] | γ-secretase cleavage of Notch in vitro at low concentrations ([1]; 0.1 nM to 10 nM) | Notch cleavage reduced to, in vitro γ-secretase activity assay ([1]; 1 μM or higher) | NICD generation blocked in vitro ([1]; 10 and 100 μM) | inhibition of AICD generation in vitro [6] | zebrafish somitogenesis and neurogenesis [7] | brain Aβ [8]
1 | C[C@H](NC(=O)Cc1cc(F)cc(F)c1)C(=O)N[C@H]1N=C(c2ccccc2)c2ccccc2N(C)C1=O [cpd E, (S,S)-2-[2-(3,5-Difluorophenyl)-acetylamino]-N-(1-methyl-2-oxo-5-phenyl-2,3-dihydro-1H-benzo [e] [1,4]diazepin-3-yl)-propionamide] | inhibited; also recorded: only minor reduction of NICD levels; also recorded: only had minor effect on Notch cleavage and NICD generation | clear reduction of NICD generation | dose-dependent inhibition of brain cortical γ-secretase activity | decreases in plasma, CSF and brain Aβ levels | 1.7 |  |  |  |  |  |  |  | 
2 | C[C@H](NC(=O)Cc1cc(F)cc(F)c1)C(=O)N[C@H](C(=O)OC(C)(C)C)c1ccccc1 [DAPT, N-[N-(3,5-Difluorophenacetyl-L-alanyl)]-S-phenylglycine t-Butyl Ester] |  | clear reduction of NICD generation |  |  |  | 10 to 100 | partial inhibition | did not inhibit | about 50% | ~ 60% | partial inhibition | caused defects in somitogenesis and neurogenesis | dose-dependent, acute decrease in brain Aβ
